This passage reports IC50 results from patent US8415469B2, “Compounds and methods for kinase modulation, and indications therefor” (Plexxikon Inc., priority 2005, dated 2013).

What all share (type): biochemical
For one test, the target named is T1, Flt1 (Homo sapiens, UniProt P17948).
T1 construct: P1826.pETN6 BI-PTP FLT1 M799-D1165-X WT; His6 (N); made in house; host or cells: E. coli (PTP1B co-expressed)
T1 sequence (P17948 with tags, fused parts or gaps): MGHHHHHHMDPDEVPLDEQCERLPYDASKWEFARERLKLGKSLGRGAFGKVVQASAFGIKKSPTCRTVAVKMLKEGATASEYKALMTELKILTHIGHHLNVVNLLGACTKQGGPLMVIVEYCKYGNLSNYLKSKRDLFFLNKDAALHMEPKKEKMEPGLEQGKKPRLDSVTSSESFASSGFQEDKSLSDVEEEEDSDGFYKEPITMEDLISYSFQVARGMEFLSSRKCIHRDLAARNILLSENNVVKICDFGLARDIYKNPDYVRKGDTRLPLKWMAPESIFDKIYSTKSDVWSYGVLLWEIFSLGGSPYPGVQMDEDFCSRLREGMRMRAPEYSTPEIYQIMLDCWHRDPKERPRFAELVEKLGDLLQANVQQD
Kind of test: AlphaScreen kinase assay, Flt1. The note with it: read-out: IC50, activity toward kinase Flt1. On the technique in general: Alpha assays give light when donor and acceptor beads are brought close together.

Another test deals with T2, FGFR1 (Homo sapiens, UniProt P11362, C488A/C584S).
T2 construct: P1351.pET N6 BI-PTP FGFR A458-E765-X C488A, C584S; made in house; host or cells: E. coli (PTP1B co-expressed)
Kind of test: AlphaScreen kinase assay, FGFR1. The conditions noted are these: read-out: IC50, activity toward kinase FGFR.

The next test concerns the target T3, Fms (Homo sapiens, UniProt P07333).
T3 construct: purchased Upstate Biotechnology
Briefly: AlphaScreen kinase assay, Fms. The conditions noted are these: read-out: IC50, activity toward kinase Fms.

The target of the next test is T4, B-Raf V600E (Homo sapiens, UniProt P15056, V600E).
T4 construct: P4254. pFastBacBD-CDC37 BRAF D437-K722-X, V600E; His6 with pFastBac HT leader (TEV site) (N); made in house; host or cells: Sf9 (baculovirus; chaperone CDC37 co-expressed)
Kind of test: AlphaScreen kinase assay, B-Raf V600E. The note with it: read-out: IC50, activity toward kinase B-Raf V600E.

A further test concerns the target T5, Kit (Homo sapiens, UniProt P10721).
T5 construct: P1332.N6 BI PTP KIT M552-K948-X COD; His6 (N); made in house; host or cells: E. coli (PTP1B co-expressed)
Briefly: AlphaScreen kinase assay, Kit. The conditions noted are these: read-out: IC50, activity toward kinase Kit.

T5 sequence (P10721 with tags, fused parts or gaps): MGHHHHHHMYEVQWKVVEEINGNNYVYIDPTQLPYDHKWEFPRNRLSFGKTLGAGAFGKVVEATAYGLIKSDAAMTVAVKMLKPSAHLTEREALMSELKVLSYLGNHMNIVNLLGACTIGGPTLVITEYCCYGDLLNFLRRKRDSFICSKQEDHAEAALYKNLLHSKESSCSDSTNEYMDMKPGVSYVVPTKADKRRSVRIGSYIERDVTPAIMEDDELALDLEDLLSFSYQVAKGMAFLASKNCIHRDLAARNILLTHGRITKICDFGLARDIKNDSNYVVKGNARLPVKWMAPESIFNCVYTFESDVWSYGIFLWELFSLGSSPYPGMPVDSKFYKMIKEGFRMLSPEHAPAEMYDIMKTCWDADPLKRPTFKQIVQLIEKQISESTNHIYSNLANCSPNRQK
T4 sequence (P15056 with tags, fused parts or gaps V600E): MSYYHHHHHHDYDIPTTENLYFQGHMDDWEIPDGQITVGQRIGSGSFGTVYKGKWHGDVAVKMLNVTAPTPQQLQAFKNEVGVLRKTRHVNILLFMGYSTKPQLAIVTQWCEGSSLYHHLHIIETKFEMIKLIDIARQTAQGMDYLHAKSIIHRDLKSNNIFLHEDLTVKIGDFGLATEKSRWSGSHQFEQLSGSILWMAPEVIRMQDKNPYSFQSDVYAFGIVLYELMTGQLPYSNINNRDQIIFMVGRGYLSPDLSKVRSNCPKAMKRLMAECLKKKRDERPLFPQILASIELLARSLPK
T3 sequence (P07333 20-972): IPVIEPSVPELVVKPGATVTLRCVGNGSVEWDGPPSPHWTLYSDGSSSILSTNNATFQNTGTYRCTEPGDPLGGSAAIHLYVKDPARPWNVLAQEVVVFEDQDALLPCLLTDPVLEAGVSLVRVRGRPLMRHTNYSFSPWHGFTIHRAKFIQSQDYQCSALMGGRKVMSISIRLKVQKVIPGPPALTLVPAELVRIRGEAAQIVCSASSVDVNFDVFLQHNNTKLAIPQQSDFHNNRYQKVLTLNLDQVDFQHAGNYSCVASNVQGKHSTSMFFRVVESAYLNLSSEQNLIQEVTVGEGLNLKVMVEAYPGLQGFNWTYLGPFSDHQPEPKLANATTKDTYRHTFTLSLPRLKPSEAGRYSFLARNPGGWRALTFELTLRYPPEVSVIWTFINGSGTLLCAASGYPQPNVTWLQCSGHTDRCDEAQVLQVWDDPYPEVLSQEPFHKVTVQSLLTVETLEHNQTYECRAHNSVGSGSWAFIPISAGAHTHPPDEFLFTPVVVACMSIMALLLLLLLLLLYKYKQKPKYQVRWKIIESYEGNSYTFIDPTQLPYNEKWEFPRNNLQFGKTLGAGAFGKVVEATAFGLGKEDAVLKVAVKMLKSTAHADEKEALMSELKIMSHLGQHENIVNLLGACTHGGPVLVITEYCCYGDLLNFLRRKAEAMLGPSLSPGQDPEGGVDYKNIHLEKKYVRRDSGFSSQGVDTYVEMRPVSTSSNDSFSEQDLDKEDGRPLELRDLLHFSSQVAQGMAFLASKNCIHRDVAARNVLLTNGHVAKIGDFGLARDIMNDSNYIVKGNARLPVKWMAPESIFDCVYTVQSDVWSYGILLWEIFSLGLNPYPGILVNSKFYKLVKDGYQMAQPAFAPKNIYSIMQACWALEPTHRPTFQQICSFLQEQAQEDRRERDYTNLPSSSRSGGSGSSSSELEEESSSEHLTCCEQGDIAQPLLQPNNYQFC
T2 sequence (P11362 458-765 C488A/C584S): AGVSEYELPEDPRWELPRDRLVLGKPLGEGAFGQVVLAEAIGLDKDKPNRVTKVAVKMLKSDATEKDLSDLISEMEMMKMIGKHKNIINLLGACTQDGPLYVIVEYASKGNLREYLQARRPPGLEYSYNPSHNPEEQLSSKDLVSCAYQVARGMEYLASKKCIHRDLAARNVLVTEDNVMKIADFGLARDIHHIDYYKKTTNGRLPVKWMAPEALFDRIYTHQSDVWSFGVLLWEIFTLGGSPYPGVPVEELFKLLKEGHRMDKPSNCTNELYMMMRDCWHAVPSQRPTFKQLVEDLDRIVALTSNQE

In the case of `CN(C)c1ccc(Cc2c[nH]c3ncccc23)cc1` [Compound P-0150], the IC50 on Flt1 and at FGFR1 was no more than 10 µM throughout.

In the case of `O=C(c1ccc(NCc2ccc(C(F)(F)F)cc2)nc1)c1c[nH]c2ncccc12` [Compound P-0461], the IC50 at Flt1 and on Fms was no more than 10 µM in each case.

In the case of `O=C(c1ccc(NCc2ccc(F)cc2)nc1)c1c[nH]c2ncccc12` [Compound P-0491], the half-maximal inhibitory concentration (IC50) on Flt1 and on Fms was no more than 10 µM each time.

`c1ccc(CNc2ccc(Cc3c[nH]c4ncccc34)cn2)cc1` [Compound P-0733]: the concentration for half-maximal inhibition (IC50) at Flt1 and at Fms was no more than 10 µM in each case.

On to `Cc1nc(NCc2ccc(C(F)(F)F)cc2)ccc1Cc1c[nH]c2ncccc12` [Compound P-1112], for which the IC50 at B-Raf V600E, at Flt1 and on Fms was no more than 10 µM throughout.

`O=C(c1ccc(Nc2ccccc2)nc1)c1c[nH]c2ncccc12` [Compound P-1160]: the IC50 at B-Raf V600E, on Flt1 and on Kit was no more than 10 µM each time.

For `OC(c1c(Cl)ccc(OCC(F)(F)F)c1F)c1c[nH]c2ncc(Br)cc12` (stereo not shown) [Compound P-1393, (5-Bromo-1H-pyrrolo[2,3-b]pyridin-3-yl)-[6-chloro-2-fluoro-3-(2,2,2-trifluoro-ethoxy)-phenyl]-methanol], the half-maximal inhibitory concentration (IC50) on Flt1, on FGFR1, on Kit and on Fms was no more than 10 µM throughout.

Regarding `COC(=O)/C=C/c1cccc(-c2cnc3[nH]cc(C(=O)c4cccc(NS(C)(=O)=O)c4)c3c2)c1` [Compound P-1404], the 50% inhibitory concentration (IC50) at Flt1, at FGFR1, on Kit and on Fms was no more than 10 µM throughout.

As to `CC(=O)Nc1cccc(-c2cnc3[nH]cc(C(=O)c4cccc(OC(F)(F)F)c4)c3c2)c1` [Compound P-1422, N-{3-[3-(3-Trifluoromethoxy-benzoyl)-1H -pyrrolo[2,3-b]pyridin-5-yl]-phenyl}-acetamide], the IC50 at Flt1 and on Kit was no more than 10 µM throughout.

As to `CC(=O)Nc1cccc(-c2cnc3[nH]cc(C(=O)c4cccc(OC(F)F)c4)c3c2)c1` [Compound P-1424, N-{3-[3-(3-Difluoromethoxy-benzoyl)-1H-pyrrolo[2,3-b]pyridin-5-yl]-phenyl}-acetamide], the IC50 on Flt1, at FGFR1 and on Kit was no more than 10 µM in each case.

On to `CS(=O)(=O)Nc1cccc(-c2cnc3[nH]cc(C(=O)c4cccc(C(F)(F)F)c4)c3c2)c1` [Compound P-1425, N-{3-[3-(3-Trifluoromethyl-benzoyl)-1H-pyrrolo[2,3-b]pyridin-5-yl]-phenyl}-methanesulfonamide], for which the IC50 on B-Raf V600E, on Flt1, at Kit and on Fms was no more than 10 µM in each case.

Take `CS(=O)(=O)Nc1cccc(-c2cnc3[nH]cc(C(=O)c4cc(F)cc(C(F)(F)F)c4)c3c2)c1` [Compound P-1427, N-{3-[3-(3-Fluoro-5-trifluoromethyl-benzoyl)-1H-pyrrolo[2,3-b]pyridin-5-yl]-phenyl}-methanesulfonamide]: the IC50 on Flt1, on Kit and at Fms was no more than 10 µM in each case.

Regarding `CS(=O)(=O)Nc1cccc(-c2cnc3[nH]cc(C(=O)c4cccc(OC(F)(F)F)c4)c3c2)c1` [Compound P-1428, N-{3-[3-(3-Trifluoromethoxy-benzoyl)-1H-pyrrolo[2,3-b]pyridin-5-yl]-phenyl}-methanesulfonamide], the IC50 at Flt1, on FGFR1, at Kit and at Fms was no more than 10 µM throughout.

Regarding `COc1cc(OC)cc(C(O)c2c[nH]c3ncc(Br)cc23)c1` (stereo not shown) [Compound P-1460], the IC50 on Flt1, at FGFR1, on Kit and on Fms was no more than 10 µM each time.

Take `Clc1ccc(Nc2c[nH]c3ncccc23)cc1` [Compound P-1491, (4-Chloro-phenyl)-(1H-pyrrolo[2,3-b]pyridin-3-yl)-amine]: the IC50 at Flt1 and at Fms was no more than 10 µM each time.

As to `c1ccc(Cc2cccc(Nc3c[nH]c4ncccc34)c2)cc1` [Compound P-1497, (3-Benzyl-phenyl)-(1H-pyrrolo[2,3-b]pyridin-3-yl)-amine], the IC50 at Flt1, on Kit and at Fms was no more than 10 µM in each case.

As to `Oc1ccc(Nc2c[nH]c3ncccc23)c(F)c1` [Compound P-1499, 3-Fluoro-4-(1H-pyrrolo[2,3-b]pyridin-3-ylamino)-phenol], the IC50 on Flt1, on Kit and at Fms was no more than 10 µM in each case.

Take `O=C(c1ccc(Cl)cc1Cl)c1c[nH]c2ncc(-c3ccccc3)cc12` [Compound P-1557]: the half-maximal inhibitory concentration (IC50) on Flt1 and at Kit was no more than 10 µM throughout.

On to `CCCCNC(=O)Nc1ccc(F)c(Cc2c[nH]c3ncc(OC)cc23)c1F` [Compound P-1571, 1-Butyl-3-[2,4-difluoro-3-(5-methoxy-1H-pyrrolo[2,3-b]pyridin-3-ylmethyl)-phenyl]-urea], for which the IC50 on Flt1 and at Fms was no more than 10 µM each time.

Turning to `COc1cnc2[nH]cc(Cc3c(F)ccc(NC(=O)NC4CCCC4)c3F)c2c1` [Compound P-1572, 1-Cyclopentyl-3-[2,4-difluoro-3-(5-methoxy-1H-pyrrolo[2,3-b]pyridin-3-ylmethyl)-phenyl]-urea], the 50% inhibitory concentration (IC50) on B-Raf V600E, at Flt1 and at Fms was no more than 10 µM in each case.

With `CCCCNC(=O)Nc1ccc(F)c(Cc2c[nH]c3ncc(Cl)cc23)c1F` [Compound P-1587, 1-Butyl-3-[3-(5-chloro-1H-pyrrolo[2,3-b]pyridin-3-ylmethyl)-2,4-difluoro-phenyl]-urea], the IC50 on Flt1 and at Fms was no more than 10 µM in each case.

On to `O=C(NCCN1CCOCC1)Nc1ccc(F)c(Cc2c[nH]c3ncc(Cl)cc23)c1F` [Compound P-1594, 1-[3-(5-Chloro-1H-pyrrolo[2,3-b]pyridin-3-ylmethyl)-2,4-difluoro-phenyl]-3-(2-morpholin-4-yl-ethyl)-urea], for which the IC50 on B-Raf V600E, on Flt1 and on Fms was no more than 10 µM throughout.

In the case of `O=C(Nc1ccc(F)c(Cc2c[nH]c3ncc(Cl)cc23)c1F)N1CCOCC1` [Compound P-1595, Morpholine-4-carboxylic acid [3-(5-chloro-1H-pyrrolo[2,3-b]pyridin-3-ylmethyl)-2,4-difluoro-phenyl]-amide], the half-maximal inhibitory concentration (IC50) on Flt1, on FGFR1 and at Fms was no more than 10 µM in each case.

With `CS(=O)(=O)Nc1ccc(F)c(Cc2c[nH]c3ncccc23)c1F` [Compound P-1603, N-[2,4-Difluoro-3-(1H-pyrrolo[2,3-b]pyridin-3-ylmethyl)-phenyl]-methanesulfonamide], the IC50 on Flt1 and on FGFR1 was no more than 10 µM each time.

Consider `O=C(c1c(F)ccc(NC(=O)N2CCOCC2)c1F)c1c[nH]c2ncc(Cl)cc12` [Compound P-1606, Morpholine-4-carboxylic acid [3-(5-chloro-1H-pyrrolo[2,3-b]pyridine-3-carbonyl)-2,4-difluoro-phenyl]-amide], for which the IC50 on B-Raf V600E, on Flt1 and at Fms was no more than 10 µM each time.

As to `CS(=O)(=O)c1cccc(-c2cnc3[nH]cc(Cc4c(F)ccc(N)c4F)c3c2)c1` [Compound P-1614], the IC50 at B-Raf V600E, on Flt1 and at FGFR1 was no more than 10 µM throughout.

Consider `CS(=O)(=O)c1cccc(-c2cnc3[nH]cc(Cc4c(F)ccc(NC(=O)NC5CCCC5)c4F)c3c2)c1` [Compound P-1615, 1-Cyclopentyl-3-{2,4-difluoro-3-[5-(3-methanesulfonyl-phenyl)-1H-pyrrolo[2,3-b]pyridin-3-ylmethyl]-phenyl}-urea], for which the concentration for half-maximal inhibition (IC50) on Flt1 and on Fms was no more than 10 µM throughout.

Regarding `NC(=O)c1cccc(-c2cnc3[nH]ccc3c2)c1` [Compound P-1622, 3-(1H-Pyrrolo[2,3-b]pyridin-5-yl)-benzamide], the IC50 on Flt1 and at FGFR1 was no more than 10 µM each time.

Regarding `O=C(c1c[nH]c2ccccc12)c1c[nH]c2ncc(Br)cc12` [Compound P-1624], the IC50 at Flt1 and on FGFR1 was no more than 10 µM each time.

On to `CCCCN(C)C(=O)Nc1ccc(F)c(Cc2c[nH]c3ncc(Cl)cc23)c1F` [Compound P-1625, 1-Butyl-3-[3-(5-chloro-1H-pyrrolo[2,3-b]pyridin-3-ylmethyl)-2,4-difluoro-phenyl]-1-methyl-urea], for which the 50% inhibitory concentration (IC50) at Flt1, on FGFR1 and at Fms was no more than 10 µM throughout.

The IC50 is the point on the concentration scale where inhibition reaches its midpoint.
